From patent US8637525B2, “Compounds for the reduction of beta-amyloid production” (Bristol-Myers Squibb Company, priority 2009, dated 2014)
Structures can show the parent of a compound that is named as a salt. Where two headings read alike, the source gives them in different places.

Tested on: Aβ1-42 production
Assay: Cellular assay for inhibition of Aβ1-42 production (H4 APP751 SWE clone 8.20)
Assay type: cell-based
Settings: H4 APP751 SWE clone 8.20 cells, 19 h incubation
In short: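 Cells incubate with compound for 19 h (37 °C, 5% CO2), the plate is briefly spun, and antibody mix is added straight to the wells: Wallac-conjugated 565 against the Aβ42 C-terminal neoepitope and APC-conjugated 26D6 against the Aβ N-terminus. After overnight sealing at 4 °C, signal is counted and IC50 fitted.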

[1] = 19 h, class symbols, read-out: Activity Rating (Aβ42 cellular IC50)
[2] = class symbols, read-out: Activity Rating (Aβ42 cellular IC50)
[3] = 19 h, read-out: Activity Rating (Aβ42 cellular IC50), numeric value

IC50 [1] | IC50 [2] | SMILES | also measured
10 to 100 nM |  | CNc1nc(Nc2ccc(-n3cnc(Cl)c3)c(OC)c2)nc2c1COCC2c1ccc(C(F)(F)F)cc1 (racemic) [Example 120, N2-(4-(4-chloro-1H-imidazol-1-yl)-3-methoxyphenyl)-N4-methyl-8-(4-(trifluoromethyl)phenyl)-7,8-dihydro-5H-pyrano[4,3-d]pyrimidine-2,4-diamine, TFA] | 
 | 1.5 to 9.9 nM | CCNc1nc(Nc2ccc(-n3cnc(Cl)c3)c(OC)c2)nc2c1COCC2c1ccc(C(F)(F)F)cc1 (centres unmarked) [Example 118A, N2-(4-(4-chloro-1H-imidazol-1-yl)-3-methoxyphenyl)-N4-ethyl-8-(4-(trifluoromethyl)phenyl)-7,8-dihydro-5H-pyrano[4,3-d]pyrimidine-2,4-diamine] | 
100 to 1000 nM |  | CNc1nc(Nc2ccc(C#N)cc2)nc2c1CCC2c1ccccc1 (centres unmarked) [Example 226, 4-(4-(methylamino)-7-phenyl-6,7-dihydro-5H-cyclopenta[d]pyrimidin-2-ylamino)benzonitrile] | 
 | 10 to 100 nM | COc1cc(Nc2nc3c(c(N4CC[C@H](F)C4)n2)COC3c2ccc(F)cc2)ccc1-n1cnc(Cl)c1 (single isomer, unassigned) [Example 77] | 
 | 100 to 1000 nM | CNc1nc(Nc2ccc(-n3ncnc3C)c(F)c2)nc2c1COCC2c1ccc(Cl)cc1 (single isomer, unassigned) [Example 69B, 8-(4-chlorophenyl)-N^2-(3-fluoro-4-(5-methyl-1H-1,2,4-triazol-1-yl)phenyl)-N^4-methyl-7,8-dihydro-5H-pyrano[4,3-d]pyrimidine-2,4-diamine] | 
 | 1.5 to 9.9 nM | CNc1nc(Nc2ccc(-n3cnc(C)n3)c(OC)c2)nc2c1COCC2c1ccc(F)cc1 (centres unmarked) [Example 54B, 8-(4-fluorophenyl)-N2-(3-methoxy-4-(3-methyl-1H-1,2,4-triazol-1-yl)phenyl)-N4-methyl-7,8-dihydro-5H-pyrano[4,3-d]pyrimidine-2,4-diamine] | 
 | 1.5 to 9.9 nM | CCN(C)c1nc(Nc2ccc(-n3cnc(Cl)c3)c(OC)c2)nc2c1CCC2c1ccccc1 (single isomer, unassigned) [Example 5A, N^2-(4-(4-chloro-1H-imidazol-1-yl)-3-methoxyphenyl)-N^4-ethyl-N^4-methyl-7-phenyl-6,7-dihydro-5H-cyclopenta[d]pyrimidine-2,4-diamine] | 
 | 10 to 100 nM | CCN(C)c1nc(Nc2ccc(-n3cnc(Cl)c3)c(OC)c2)nc2c1COCC2c1ccccc1 (single isomer, unassigned) [Example 52B, N^2-(4-(4-Chloro-1H-imidazol-1-yl)-3-methoxyphenyl)-N^4-ethyl-N^4-methyl-8-phenyl-7,8-dihydro-5H-pyrano[4,3-d]pyrimidine-2,4-diamine] | 
10 to 100 nM |  | CCNc1nc(Nc2ccc(-n3cnc(Cl)c3)c(OC)c2)nc2c1CN(C(=O)C1CC1)CC2c1ccccc1 (centres unmarked) [Example 132, (2-(4-(4-chloro-1H-imidazol-1-yl)-3-methoxyphenylamino)-4-(ethylamino)-8-phenyl-7,8-dihydropyrido[4,3-d]pyrimidin-6(5H)-yl)(cyclopropyl)methanone] | 
10 to 100 nM |  | CNc1nc(Nc2ccc(-n3cnc(Cl)c3)c(OC)c2)nc2c1COC2c1ccc(F)cc1 (single isomer, unassigned) [Example 79B, N^2-(4-(4-chloro-1H-imidazol-1-yl)-3-methoxyphenyl)-7-(4-fluorophenyl)-N^4-methyl-5,7-dihydrofuro[3,4-d]pyrimidine-2,4-diamine] | 
 | 1.5 to 9.9 nM | CNc1nc(Nc2ccc(-n3cnc(Cl)c3)c(OC)c2)nc2c1COCC2c1ccc(C(F)(F)F)cc1 (centres unmarked) [Example 120A, N2-(4-(4-chloro-1H-imidazol-1-yl)-3-methoxyphenyl)-N4-methyl-8-(4-(trifluoromethyl)phenyl)-7,8-dihydro-5H-pyrano[4,3-d]pyrimidine-2,4-diamine] | 
100 to 1000 nM |  | CNc1nc(Nc2ccc(-n3cnc(C#N)c3)c(OC)c2)nc2c1CCC2c1ccccc1 (centres unmarked) [Example 204B, 1-(2-methoxy-4-(4-(methylamino)-7-phenyl-6,7-dihydro-5H-cyclopenta[d]pyrimidin-2-ylamino)phenyl)-1H-imidazole-4-carbonitrile] | 
10 to 100 nM |  | CCNc1nc(Nc2ccc(-n3cnc(C)n3)c(F)c2)nc2c1CN(CC(F)(F)F)CC2c1ccccc1 (centres unmarked) [Example 145, N4-ethyl-N2-(3-fluoro-4-(3-methyl-1H-1,2,4-triazol-1-yl)phenyl)-8-phenyl-6-(2,2,2-trifluoroethyl)-5,6,7,8-tetrahydropyrido[4,3-d]pyrimidine-2,4-diamine] | 
10 to 100 nM |  | COc1cc(Nc2nc3c(c(N4CCC4)n2)CCC3c2ccccc2)ccc1-n1cnc(Cl)c1 (centres unmarked) [Example 6, 4-(Azetidin-1-yl)-N-(4-(4-chloro-1H-imidazol-1-yl)-3-methoxyphenyl)-7-phenyl-6,7-dihydro-5H-cyclopenta[d]pyrimidin-2-amine] | 
10 to 100 nM |  | CCNc1nc(Nc2ccc(-n3ncnc3C)c(F)c2)nc2c1COC2c1ccc(F)cc1 (centres unmarked) [Example 78, N^4-ethyl-N^2-(3-fluoro-4-(5-methyl-1H-1,2,4-triazol-1-yl)phenyl)-7-(4-fluorophenyl)-5,7-dihydrofuro[3,4-d]pyrimidine-2,4-diamine] | 
10 to 100 nM |  | CCNc1nc(Nc2ccc(-n3ncnc3C)c(F)c2)nc2c1CN(C)CC2c1ccccc1 (centres unmarked) [Example 153, N4-ethyl-N2-(3-fluoro-4-(5-methyl-1H-1,2,4-triazol-1-yl)phenyl)-6-methyl-8-phenyl-5,6,7,8-tetrahydropyrido[4,3-d]pyrimidine-2,4-diamine] | 
 |  | CNc1nc(Nc2ccc(-n3ncnc3C)c(F)c2)nc2c1COCC2c1ccc(Br)cc1 (centres unmarked) [Example 73, 8-(4-bromophenyl)-N^2-(3-fluoro-4-(5-methyl-1H-1,2,4-triazol-1-yl)phenyl)-N^4-methyl-7,8-dihydro-5H-pyrano[4,3-d]pyrimidine-2,4-diamine] | IC50 [3]: 3.8 nM
 | 10 to 100 nM | COc1cc(Nc2nc3c(c(N(C)C)n2)CCCC3c2ccc(F)cc2)ccc1-n1cnc(Cl)c1 (single isomer, unassigned) [Example 127B, N^2-(4-(4-chloro-1H-imidazol-1-yl)-3-methoxyphenyl)-8-(4-fluorophenyl)-N^4,N^4-dimethyl-5,6,7,8-tetrahydroquinazoline-2,4-diamine] | 
1.5 to 9.9 nM |  | CNc1nc(Nc2ccc(-n3cnc(Cl)c3)c(OC)c2)nc2c1CCC2c1cc(F)cc(F)c1 (racemic) [Example 102, N^2-(4-(4-Chloro-1H-imidazol-1-yl)-3-methoxyphenyl)-7-(3,5-difluorophenyl)-N^4-methyl-6,7-dihydro-5H-cyclopenta[d]pyrimidine-2,4-diamine] | 
1.5 to 9.9 nM |  | CNc1nc(Nc2ccc(-c3ccncc3)c(OC)c2)nc2c1CCC2c1ccccc1 (centres unmarked) [Example 262, N2-(3-methoxy-4-(pyridin-4-yl)phenyl)-N4-methyl-7-phenyl-6,7-dihydro-5H-cyclopenta[d]pyrimidine-2,4-diamine] | 
 |  | CCNc1nc(Nc2ccc(-n3cnc(Cl)c3)c(OC)c2)nc2c1CN(C(C)=O)CC2c1ccccc1 (centres unmarked) [Example 137, 1-(2-(4-(4-chloro-1H-imidazol-1-yl)-3-methoxyphenylamino)-4-(ethylamino)-8-phenyl-7,8-dihydropyrido[4,3-d]pyrimidin-6(5H)-yl)ethanone] | IC50 [3]: 11 nM
 | 1.5 to 9.9 nM | CCNc1nc(Nc2ccc(-n3cnc(Cl)c3)c(OC)c2)nc2c1CN(S(=O)(=O)CC)CC2c1ccccc1 (centres unmarked) [Example 138A, N2-(4-(4-chloro-1H-imidazol-1-yl)-3-methoxyphenyl)-N4-ethyl-6-(ethylsulfonyl)-8-phenyl-5,6,7,8-tetrahydropyrido[4,3-d]pyrimidine-2,4-diamine] | 
10 to 100 nM |  | CNc1nc(Nc2ccc(-n3cnc(C)n3)c(OC)c2)nc2c1CC[C@@H]2c1ccccc1Cl [Example 268B, (R)—N2-(3-methoxy-4-(3-methyl-1H-1,2,4-triazol-1-yl)phenyl)-7-(2-chlorophenyl)-N4-methyl-6,7-dihydro-5H-cyclopenta[d]pyrimidine-2,4-diamine] | 
 | 10 to 100 nM | COc1cc(Nc2nc3c(c(N4CCCC4C)n2)CCC3c2ccc(F)cc2)ccc1-n1cnc(Cl)c1 (single isomer, unassigned) [Example 19, N-(4-(4-chloro-1H-imidazol-1-yl)-3-methoxyphenyl)-7-(4-fluorophenyl)-4-(2-methylpyrrolidin-1-yl)-6,7-dihydro-5H-cyclopenta[d]pyrimidin-2-amine] | 
1.5 to 9.9 nM |  | CNc1nc(Nc2ccc(-n3cnc(Cl)c3)c(OC)c2)nc2c1COCC2c1ccc(OC(F)(F)F)cc1 (centres unmarked) [Example 122A, N2-(4-(4-chloro-1H-imidazol-1-yl)-3-methoxyphenyl)-N4-methyl-8-(4-(trifluoromethoxy)phenyl)-7,8-dihydro-5H-pyrano[4,3-d]pyrimidine-2,4-diamine] | 
> 1000 nM |  | CNc1nc(Nc2cc(F)cc(F)c2)nc2c1CCC2c1ccccc1 (centres unmarked) [Example 219, N2-(3,5-difluorophenyl)-N4-methyl-7-phenyl-6,7-dihydro-5H-cyclopenta[d]pyrimidine-2,4-diamine] | 
 | 10 to 100 nM | CCNc1nc(Nc2ccc(-n3cnc(Cl)c3)c(OC)c2)nc2c1COCC2c1ccc(F)cc1 (centres unmarked) [Example 56B, N2-(4-(4-chloro-1H-imidazol-1-yl)-3-methoxyphenyl)-N4-ethyl-8-(4-fluorophenyl)-7,8-dihydro-5H-pyrano[4,3-d]pyrimidine-2,4-diamine] | 
10 to 100 nM |  | COc1cc(Nc2nc3c(c(N(C)C)n2)COCC3c2ccc(Cl)cc2)ccc1-n1cnc(Cl)c1 (centres unmarked) [Example 65, N^2-(4-(4-chloro-1H-imidazol-1-yl)-3-methoxyphenyl)-8-(4-chlorophenyl)-N^4,N^4-dimethyl-7,8-dihydro-5H-pyrano[4,3-d]pyrimidine-2,4-diamine] | 
10 to 100 nM |  | CCNc1nc(Nc2ccc(-n3cnc(Cl)c3)c(OC)c2)nc2c1CCOC2c1ccc(F)cc1 (centres unmarked) [Example 88B, N2-(4-(4-chloro-1H-imidazol-1-yl)-3-methoxyphenyl)-N4-ethyl-8-(4-fluorophenyl)-6,8-dihydro-5H-pyrano[3,4-d]pyrimidine-2,4-diamine] | 
